Test results as given in patent publication US20240041050A1, “CELL PENETRATING PEPTIDE MEDIATED RNA TRANSDUCTION WITHIN INSECT CELLS” (PIONEER HI-BRED INTERNATIONAL, INC., priority 2020, published 2024).
Peptide text beside a SMILES is read from it.

Tests used:
[1] = test system: western corn rootworm (WCR) larvae; experiment: Oral toxicity screening of CPPs in artificial diet; type: in vivo; conditions: first instar WCR larvae, mortality and stunting
Description: Briefly, CPPs were incorporated into standard WCR artificial diet in 96-well microtiter plate format. A 25 μL aliquot of dosing solution was combined with 75 μL molten low-melt WCR diet and shaken on an orbital shaker to mix. Once diet solidified, preconditioned first instar WCR (freshly-hatched insects placed on neutral diet for 24 hours prior to transfer to test diet) were added to the diet plates at a rate of 1 insect·well^−1. Plates were placed inside an incubator (Percival Scientific, Inc., Perry, IA) set to 27° C., 65% RH, and a 24-hour dark cycle. The assay was scored for mortality and stunting affects after 7 and 12 days, without diet refresh, on a 0-3 scale, where 3=mortality, 2=severe stunting, 1=stunting, 0=no affect when compared with untreated larvae. The assay was repeated three times and end-results were tabulated using all three replicates and converted to percentages (Table 5).

dvssj1 frag 1 dsRNA = experiment: CPP·dsRNA complex formation by gel shift assay; type: binding; conditions: 770 nM unlabeled dsRNA (2100 ng); molar ratio 1:4 through 8:1; 1.2% TE agarose gel
Description: FIG. 2 Formation of CPP·dsRNA complex as assessed by gel shift assay. FIG. 2A Reactions were assembled as described in Example 3, with increasing amounts of MPG-YFP added to […] Cy3-dsRNA (595.8 ng), from a molar ratio (CPP:dsRNA) of 1:4 through 8:1. After incubation, 20 μL reaction volumes were each mixed with 2 μL 10% molecular biology grade glycerol and electrophoresed on a 1.2% Tris-EDTA (TE) agarose gel and stained with Invitrogen™ SYBR Safe DNA Gel Stain (Thermo Fisher Scientific, Waltham, MA). Effects on mobility of the Cy3-dsRNA band are observed upon increasing molar ratios of MPG-YFP. […] The large relative size of MPG-YFP causes a large band shift. FIG. 2B Reactions were assembled as described in Example 3, with increasing amounts of CyLoP added to 770 nM dsRNA (2100 ng), from a molar ratio of 1:4 through 8:1. […] FIG. 2C Results of MPG-YFP binding to Cy3-dsRNA (described in 2A) assessed by DLS. […] Readings were collected using default settings for protein molecules, at 25° C. with a 15 second equilibration stage, using a Zetasizer Ultra and accompanying software (Malvern Panalytical, Malvern, United Kingdom). The dispersant was adjusted to account for the specific viscosity and refractive index of the complex formation solution prior to calculation of detected sizes. […]

N=C(N)NCCC[C@H](NC(=O)[C@H](Cc1c[nH]c2ccccc12)NC(=O)[C@H](CCCNC(=N)N)NC(=O)[C@@H](N)CS)C(=O)N[C@@H](Cc1c[nH]c2ccccc12)C(=O)N[C@@H](CCCCN)C(=O)N[C@@H](CS)C(=O)N[C@@H](CS)C(=O)N[C@@H](CCCCN)C(=O)N[C@@H](CCCCN)C(=O)O [CyLoP-1, CRWRWKCCKK] (H-CRWRWKCCKK-OH; N-terminus and C-terminus assumed)
Affected (%) ([1]; 0.195 ppm in artificial diet): 0% | Affected (%) ([1]; 0.391 ppm in artificial diet): 0% | Affected (%) ([1]; 0.781 ppm in artificial diet): 0% | Affected (%) ([1]; 1.56 ppm in artificial diet): 0% | Affected (%) ([1]; 3.13 ppm in artificial diet): 0% | Affected (%) ([1]; 6.25 ppm in artificial diet): 0% | Affected (%) ([1]; 12.5 ppm in artificial diet): 0% | Affected (%) ([1]; 25.0 ppm in artificial diet): 0% | Affected (%) ([1]; 50.0 ppm in artificial diet): 0% | Affected (%) ([1]; 100 ppm in artificial diet): 0% | Affected (%) ([1]; 200 ppm in artificial diet): 0% | gel shift: apparent size of the RNA band with increasing CPP (dvssj1 frag 1 dsRNA): binding of CyLoP molecules to the RNA
